Assay [1] relates to Lettuce Lactuca sativa “volare”. In words: Organosulfur compounds on lettuce, seed drench (Example 9). The assay is classed as in vivo. The note with it: for Added harvest (weight) per plant compared to control (%) / Root formation (%) compared to control / Relative fresh weight/plant compared to control (%): seed drench, 1000× diluted emulsion; for Root formation (%) compared to control: control = 100; for Relative fresh weight/plant compared to control (%): control = emulsifier solution = 100; for Harvest: Fresh weight/plant: seeds drenched 10 minutes in 1000× diluted emulsion, 21 °C. Here is the method:
(§1) Experimental design. The bio-stimulatory effects of organosulfur compounds was tested on lettuce and sweet pepper (Capsicum annuum “Ritmico”). The tested compounds include di-n-propyl disulfide (GAS 629-19-6), di-n-propyl thiosulfonate (i.e., PTSO, CAS 1113-13-9), di-methyl thiosulfonate (GAS 2949-92-0), and di-phenyl thiosulfonate (Gas 1212-08-4). Di-methyl thiosulfonate and di-phenyl thiosulfonate were ordered from Adrich-Sigma. PTSO was purified as described in example 1. In order to obtain a stable and homogenous emulsion, the compounds were dissolved into an emulsifier solution (table 25) to assure that the crops are supplied with the defined solution. […] As examples herein, “PTSO Composition 5.2” refers to an agricultural composition comprising 5.2% PTSO and further comprises 59% emulsifier (propylene glycol and glyceryl polyethyleneglycol ricinoleate). “PTSO composition 5.2 Yuka” in an agricultural composition comprising 5.2% PTSO and 90.2% Yuka extract. “PTSO composition 5.2 Tween” in an agricultural composition comprising 5.2% PTSO, 30.1% Tween, 30.1% DMSO and 30% water.
(§2) The dosage of the test compounds was standardized on base of the molar dosage and the same molar dosage was administered as PTSO. Emulsions were prepared by adding the required amount of the compounds as indicated in table 25 in 100 ml volumes of 50% tween 80 and 50 ml DMSO. Hereafter, the volumes were supplemented to a final volume of 250 ml with the same mixture and incubation took place at an orbital shaker at 37° C. (30 minutes, 250 rpm).
Before seeding, the seeds of lettuce were drenched into 1000× diluted emulsions as indicated in table 25 and incubated for 10 minutes. Each treatment was performed in 4-fold. In table 26 the growth settings of lettuce and sweet peppers are summarized and in table 27 a summary of the realized growth conditions and crop harvest is presented of lettuce.

In assay [2] the test system is sweet pepper (Capsicum annuum “Ritmico”). Briefly: Organosulfur compounds on sweet pepper, drip (Example 9). The assay is classed as in vivo. The conditions noted are these: no fruits yet, preliminary. Here is the method: as §1, §2

For the molecule `CSS(C)(=O)=O` [Di-methyl thiosulfonate, di-methyl thiosulfonate], in assay [1], the “Added harvest (weight) per plant compared to control (%)” value (shortened to “Added harvest (weight) per plant … (%)”) is on record as 20%, the “Root formation (%) compared to control” value came out at 115%, the “Relative fresh weight/plant compared to control (%)” value (“Relative fresh weight/plant … (%)” below) stood at 120% and the “Harvest: Fresh weight/plant” value was found to be 1.96. In assay [2], the “Size increase over control (%)” value was 6.1%.
On to `O=S(=O)(Sc1ccccc1)c1ccccc1` [Di-phenyl thiosulfonate, di-phenyl thiosulfonate], for which, in assay [1], the “Added harvest (weight) per plant … (%)” value was determined as 3%, the “Root formation (%) compared to control” value was 93.9%, the “Relative fresh weight/plant … (%)” value stood at 103% and the “Harvest: Fresh weight/plant” value came to 1.68. In addition, the “Size increase over control (%)” value in assay [2] was 2.8%.
Turning to `CCCSSCCC` [Di-propyl disulfide], in assay [1], the “Added harvest (weight) per plant … (%)” value worked out at 10%, the “Root formation (%) compared to control” value turned out to be 109%, the “Relative fresh weight/plant … (%)” value is listed as 110% and the “Harvest: Fresh weight/plant” value is recorded as 1.80. In addition, in assay [2], the “Size increase over control (%)” value is listed as 2.8%.
For `CCCSS(=O)(=O)CCC` [PTSO, di-n-propyl thiosulfonate] the same measures were 13%, 110%, 113%, 1.84 and 4.2%.

Source of the values: patent US20240407361A1, “ORGANOSULFUR COMPOUNDS AS PLANT BIOSTIMULANTS” (AHV International B.V., priority 2021, published 2024).
